Reference: article PMC7343187, “Control of mRNA translation by dynamic ribosome modification” (PLoS Genetics, 2020)

Columns and labels:
[1] = target: SBW25 RimK (Pseudomonas fluorescens SBW25) (UniProt C3KE61)
[2] = target: T1, RimK (Pseudomonas fluorescens, UniProt C3KE61); assay: PK/LDH-coupled ATPase assay (NADH oxidation); assay type: biochemical; settings: 100 mM Tris-Cl pH 9.0, 20 mM MgSO4, 25 °C
T1 construct: His6-tagged, expressed in E. coli BL21(DE3) pLysS, Ni-NTA purified
T1 sequence (C3KE61 1-301): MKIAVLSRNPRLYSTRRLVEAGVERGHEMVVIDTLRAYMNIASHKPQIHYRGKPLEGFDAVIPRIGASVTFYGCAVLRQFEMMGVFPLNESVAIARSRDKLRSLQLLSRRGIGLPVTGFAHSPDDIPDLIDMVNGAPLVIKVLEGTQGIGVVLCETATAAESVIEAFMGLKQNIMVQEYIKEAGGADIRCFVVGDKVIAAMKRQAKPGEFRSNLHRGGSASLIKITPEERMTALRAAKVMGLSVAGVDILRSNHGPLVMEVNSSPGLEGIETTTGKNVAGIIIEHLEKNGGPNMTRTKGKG

[3] = target: T1, RimK; assay: PK/LDH-coupled ATPase assay; RpsF glutamation SDS-PAGE gel shift; assay type: biochemical; settings: activator; ATPase with 25 uM cdG, 2.5 uM RimK, pH 9.0, 20 mM MgSO4, 25 °C
[4] = target: T1, RimK; assay: RpsF glutamation assay, SDS-PAGE and mass spectrometry; assay type: biochemical; settings: acceptor RpsF10glu (SBW25); 20 mM ATP, 20 mM MgSO4, pH 9.0, room temperature

Compound: SBW25 RimA (enzyme)
- Kd fitted to the RimK ATPase activity data of Fig 2E with the four-state kinetic model (RimK, RimK.RimA, RimK.cdG, RimK.cdG.RimA) [1]: 200 nM
- Kd fitted to the RimK ATPase activity data of Fig 2E with the two-state kinetic model (RimK, RimK*), which the paper calls unlikely [1]: 83.2 nM

Compound: Nc1ncnc2c1ncn2[C@@H]1O[C@H](COP(=O)(O)OP(=O)(O)OP(=O)(O)O)[C@@H](O)[C@H]1O [ATP]
- PK/LDH-coupled ATPase assay (NADH oxidation) [2]: plotting the specific activity of the enzyme (nmol ATP hydrolyzed/min/mg protein) versus ATP concentration

Compound: Nc1nc2c(ncn2[C@@H]2O[C@@H]3COP(=O)(O)O[C@H]4[C@@H](O)[C@H](n5cnc6c(=O)[nH]c(N)nc65)O[C@@H]4COP(=O)(O)O[C@H]3[C@H]2O)c(=O)[nH]1 [cdG, cyclic-di-GMP]
- PK/LDH-coupled ATPase assay; RpsF glutamation SDS-PAGE gel shift [3]: cdG was shown to stimulate both ATPase activity (Fig 2A) and RpsF modification (Fig 2B)

Compound: N[C@@H](CCC(=O)O)C(=O)O [L-glutamate]
- RpsF glutamation assay, SDS-PAGE and mass spectrometry [4]: addition of RimK resulted in unregulated modification of RpsF10glu in a glutamate-dependent manner
